Here are results for six molecules from patent EP4458830A1, “TRICYCLIC COMPOUND, METHOD FOR PREPARING SAME, AND USE THEREOF” (Sichuan Kelun-Biotech Biopharmaceutical Co., Ltd., priority 2021, dated 2023).

The target of experiment [1] is T1, human TLR7 (Homo sapiens, UniProt Q9NYK1).
T1 construct: host or cells: HEK-Blue hTLR7 cells (HEK293-derived reporter line; that the line is stably transfected with the human TLR7 gene is own knowledge of the vendor's product)
T1 sequence (Q9NYK1 27-1049): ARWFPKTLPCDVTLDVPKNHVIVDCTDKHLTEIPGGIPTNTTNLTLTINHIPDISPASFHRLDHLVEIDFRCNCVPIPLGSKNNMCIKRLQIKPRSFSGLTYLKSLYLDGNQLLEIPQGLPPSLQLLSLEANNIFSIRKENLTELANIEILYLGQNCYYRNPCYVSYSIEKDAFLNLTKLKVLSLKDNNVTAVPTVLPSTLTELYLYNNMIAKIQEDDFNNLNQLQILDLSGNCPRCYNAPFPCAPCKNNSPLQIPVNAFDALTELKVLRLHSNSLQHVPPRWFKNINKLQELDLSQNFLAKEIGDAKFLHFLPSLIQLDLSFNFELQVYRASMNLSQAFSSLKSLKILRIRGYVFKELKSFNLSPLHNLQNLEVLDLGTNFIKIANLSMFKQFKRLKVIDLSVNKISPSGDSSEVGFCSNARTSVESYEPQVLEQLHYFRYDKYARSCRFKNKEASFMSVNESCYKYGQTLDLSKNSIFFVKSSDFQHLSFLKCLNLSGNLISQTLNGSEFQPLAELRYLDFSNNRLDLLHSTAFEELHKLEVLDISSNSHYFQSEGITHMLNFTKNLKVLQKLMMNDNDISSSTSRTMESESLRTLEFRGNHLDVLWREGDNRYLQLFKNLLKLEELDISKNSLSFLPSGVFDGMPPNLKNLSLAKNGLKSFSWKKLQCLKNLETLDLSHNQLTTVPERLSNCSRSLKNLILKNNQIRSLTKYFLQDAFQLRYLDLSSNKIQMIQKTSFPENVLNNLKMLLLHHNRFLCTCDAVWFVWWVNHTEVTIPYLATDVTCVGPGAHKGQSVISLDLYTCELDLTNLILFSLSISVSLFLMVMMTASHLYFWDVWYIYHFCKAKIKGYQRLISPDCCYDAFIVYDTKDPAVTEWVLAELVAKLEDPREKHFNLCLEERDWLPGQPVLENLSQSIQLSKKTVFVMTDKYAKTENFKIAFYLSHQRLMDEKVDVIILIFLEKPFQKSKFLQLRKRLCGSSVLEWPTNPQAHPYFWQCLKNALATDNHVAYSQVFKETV
Put plainly: Agonistic activity of compounds on HEK-Blue hTLR7 cells (QUANTI-Blue reporter, OD620). Type of experiment: cell-based. The following applies: for EC50 / Emax: HEK-Blue hTLR7 cells; for EC50: 20 h incubation; for Emax: OD620 at which the activation effect reached the maximum; for activation effect on human TLR7: summary in words. As to the method:
• 1. HEK-Blue hTLR7 cells (Invivogen) were cultured in DMEM medium (Hyclone) containing 10% FBS heat-inactivated fetal bovine serum (Corning). On the day of detection, the cell state was observed under a microscope, the cells were collected and resuspended, and the cell concentration was adjusted after counting, 50 µL per well, the total amount of cells was 2×10^4, and the cells were inoculated in a 96-well plate. • 2. After the cells adhered to the wall overnight, 50 µL of the test compound at different concentrations was added into the well plate, so that the final concentrations were 100 µM, 33.3 µM, 11.11 µM, 3.70 µM, 1.23 µM, 0.41 µM, 0.14 µM, 0.05 µM, 0 µM, and the final concentration of DMSO was 1%. The compound was incubated with the cells in a 37°C, 5% CO2 incubator for 20 h. • 3. After the incubation, observation under microscope was performed to determine the maximum signal well, the states of the cells with the highest and lowest concentrations of the compound, and whether the compound will crystalize at high concentration. 10 µL of cell culture supernatant was taken and transferred to a new 96-well transparent plate, 90 µL of QUANTI-Blue (Invivogen) detection reagent was added to each well, and incubated at 37°C for 3 h, and OD620 was read with a multifunctional microplate reader (BMG LABTECH). • 4. EC50 was calculated by fitting with Graphpad Prism software log(agonist) vs. response - Variable slope, and Emax was the OD620 at which the activation effect of the test compound reached the maximum.

Experiment [2] addresses T2, human TLR8 (Homo sapiens, UniProt Q9NR97).
T2 construct: host or cells: HEK-Blue hTLR8 cells (HEK293-derived reporter line; that the line is stably transfected with the human TLR8 gene is own knowledge of the vendor's product)
T2 sequence (Q9NR97 27-1041): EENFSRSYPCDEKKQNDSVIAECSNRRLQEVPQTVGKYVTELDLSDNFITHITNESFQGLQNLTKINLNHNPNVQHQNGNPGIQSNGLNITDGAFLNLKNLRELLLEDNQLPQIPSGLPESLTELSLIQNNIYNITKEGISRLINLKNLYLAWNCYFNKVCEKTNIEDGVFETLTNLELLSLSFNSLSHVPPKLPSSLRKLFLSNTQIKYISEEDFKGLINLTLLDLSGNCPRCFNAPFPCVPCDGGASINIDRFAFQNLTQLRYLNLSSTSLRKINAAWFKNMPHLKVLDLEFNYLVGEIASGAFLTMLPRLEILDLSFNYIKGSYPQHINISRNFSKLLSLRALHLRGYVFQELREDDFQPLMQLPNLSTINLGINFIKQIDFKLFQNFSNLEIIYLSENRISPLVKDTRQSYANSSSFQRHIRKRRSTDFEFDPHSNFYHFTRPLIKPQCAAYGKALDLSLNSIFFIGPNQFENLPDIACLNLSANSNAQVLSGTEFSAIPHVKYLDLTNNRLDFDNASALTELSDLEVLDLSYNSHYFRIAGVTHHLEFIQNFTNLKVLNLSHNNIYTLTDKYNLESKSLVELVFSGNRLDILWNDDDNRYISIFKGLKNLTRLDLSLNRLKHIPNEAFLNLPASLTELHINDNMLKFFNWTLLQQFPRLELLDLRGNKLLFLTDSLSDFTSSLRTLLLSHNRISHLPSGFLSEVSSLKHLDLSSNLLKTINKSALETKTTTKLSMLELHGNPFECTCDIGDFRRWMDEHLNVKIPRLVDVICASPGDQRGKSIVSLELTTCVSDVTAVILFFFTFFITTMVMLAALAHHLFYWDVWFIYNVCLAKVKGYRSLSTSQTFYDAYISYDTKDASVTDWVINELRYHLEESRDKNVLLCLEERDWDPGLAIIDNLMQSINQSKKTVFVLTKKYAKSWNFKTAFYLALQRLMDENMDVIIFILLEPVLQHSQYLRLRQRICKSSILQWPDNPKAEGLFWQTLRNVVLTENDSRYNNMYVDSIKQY
Put plainly: Agonistic activity of compounds on HEK-Blue hTLR8 cells (QUANTI-Blue reporter, OD620). Type of experiment: cell-based. The settings on record: for EC50 / Emax: HEK-Blue hTLR8 cells; for EC50: 20 hours incubation; for Emax: OD620 at which the activation effect reached the maximum; for activation effect on human TLR8: summary in words. The protocol:
• 1. HEK-Blue hTLR8 cells (Invivogen) were cultured in DMEM medium (Hyclone) containing 10% FBS heat-inactivated fetal bovine serum (Corning). On the day of detection, the cell state was observed under a microscope, the cells were collected and resuspended, and the cell concentration was adjusted after counting, 50 µL per well, the total amount of cells was 2×10^4, and the cells were inoculated in a 96-well plate. • 2. After the cells adhered to the wall overnight, 50 µL of the test compound at different concentrations was added to the well plate, so that the final concentrations were 100 µM, 25 µM, 6.25 µM, 1.56 µM, 0.39 µM, 0.10 µM, 0.02 µM, 0.006 µM, 0 µM, or 100 µM, 33.3 µM, 11.11 µM, 3.70 µM, 1.23 µM, 0.41 µM, 0.14 µM, 0.05 µM, 0 µM, and the final concentration of DMSO was 1%. The compound was incubated with the cells in a 37°C, 5% CO2 incubator for 20 hours. • 3. After the incubation, observation was performed under microscope to determine the maximum signal well, the state of the cells with the highest and lowest concentrations of the compound, and whether the compound will crystalize at high concentration. 10 µL of cell culture supernatant was transferred to a new 96-well transparent plate, added with 90 µL of QUANTI-Blue (Invivogen) detection reagent to each well, incubated at 37°C for 3 hours, and OD620 was read with a multifunctional microplate reader (BMG LABTECH). • 4. EC50 was calculated by fitting with Graphpad Prism software log(agonist) vs. Response - Variable slope, and Emax was the OD620 at which the activation effect of the test compound reached the maximum.

Take `CCCCc1nc2c(N)nc3cc(C)sc3c2n1CCCCN` [Compound 1, 1-(4-aminobutyl)-2-butyl-7-methyl-1H-imidazo[4,5-d]thieno[3,2-b]pyridine-4-amine]: in experiment [1], a half-maximal effect (EC50) was put at 0.22 µM, the Emax was 1.36 OD620 and the “activation effect on human TLR7” value was “strong activation effect”. Besides, in experiment [2], the EC50 was 5.83 µM, the Emax came out at 1.43 OD620 and the “activation effect on human TLR8” value was “strong activation effect”.

As to `CCCCc1nc2c(N)nc3ccsc3c2n1CCCCN` [Compound 2, 1-(4-aminobutyl)-2-butyl-1H-imidazo[4,5-d]thieno[3,2-b]pyridine-4-amine], in experiment [1], the concentration giving a half-maximal response (EC50) was 0.28 µM, the Emax is 1.36 OD620 and the “activation effect on human TLR7” value is “strong activation effect”. For the same molecule, in experiment [2], the 50% effective concentration (EC50) turned out to be 8.83 µM, the Emax is given as 1.37 OD620 and the “activation effect on human TLR8” value is recorded as “strong activation effect”.

With `CCCCc1nc2c(N)nc3cc(C)sc3c2n1CC1CCNCC1` [Compound 3, 2-butyl-7-methyl-1-(piperidin-4-ylmethyl)-1H-imidazo[4,5-d]thieno[3,2-b]pyridine-4-amine], in experiment [1], a half-maximal effect (EC50) was put at 0.47 µM, the Emax worked out at 1.43 OD620 and the “activation effect on human TLR7” value is on record as “strong activation effect”. For the same molecule, in experiment [2], the 50% effective concentration (EC50) amounted to 19.4 µM, the Emax is listed as 1.86 OD620 and the “activation effect on human TLR8” value is recorded as “strong activation effect”.

Turning to `CCCCc1nc2c(N)nc3cc(C4CCN(C)CC4)sc3c2[nH]1` [Compound 6, 2-butyl-7-(1-methylpiperidin-4-yl)-1H-imidazo[4,5-d] thieno[3,2-b]pyridine-4-amine], in experiment [1], the EC50 is 0.44 µM, the Emax was 1.08 OD620 and the “activation effect on human TLR7” value is recorded as “strong activation effect”. In experiment [2], the EC50 was 15.3 µM, the Emax amounted to 1.11 OD620 and the “activation effect on human TLR8” value was “strong activation effect”.

As for `CCCCc1nc2c(N)nc3ccsc3c2n1CC1CCN(C)CC1` [Compound 27, 2-butyl-1-[(1-methylhexahydropyridin-4-yl)methyl] thieno[3,2-b]imidazo[4,5-d]pyridine-4-amine], in experiment [1], the EC50 was determined as 0.27 µM, the Emax stood at 1.59 OD620 and the “activation effect on human TLR7” value is listed as “strong activation effect”. Moreover, in experiment [2], the concentration giving a half-maximal response (EC50) was 11.9 µM, the Emax is on record as 0.84 OD620 and the “activation effect on human TLR8” value is recorded as “strong activation effect”.

`CCCCc1nc2c(N)nc3cc(C4CCNCC4)sc3c2n1CC1CCOCC1` [Compound 33, 2-butyl-7-(hexahydropyridin-4-yl)-1-(3,4,5,6-tetrahydro-2H-pyran-4-ylmethyl)thieno[3,2-b]imidazo[4,5-d]pyridine-4-amine]: in experiment [1], the EC50 is 0.03 µM, the Emax worked out at 1.46 OD620 and the “activation effect on human TLR7” value was “strong activation effect”. Further, in experiment [2], the EC50 turned out to be 18.9 µM, the Emax was determined as 0.67 OD620 and the “activation effect on human TLR8” value is reported as “strong activation effect”.

For orientation: EC50 means the midpoint of the concentration-response curve. A higher EC50 goes with a need for much substance.
